Measurements: ChEMBL document CHEMBL1142058, “Amorphane sesquiterpenes from a marine Streptomyces sp” (J Nat Prod, 2007)
Activity calls are given as the source filed them.

Key:
Format in all cases: functional, organism-based
Rhizomucor miehei = assay: Antifungal activity against Mucor miehei at 80 ug/disk
[1] = test system: Streptomyces viridochromogenes; assay: Antibacterial activity against Streptomyces viridochromogenes Tu 57 at 80 ug/disk
Staphylococcus aureus = assay: Antibacterial activity against Staphylococcus aureus at 80 ug/disk
Artemia = assay: Activity against brine shrimp at 10 ug/mL
Escherichia coli = assay: Antibacterial activity against Escherichia coli at 80 ug/disk
Chlorella vulgaris = assay: Antimicrobial activity against Chlorella vulgaris at 80 ug/disk
Desmodesmus subspicatus = assay: Antimicrobial activity against Scenedesmus subspicatus at 80 ug/disk
Candida albicans = assay: Antifungal activity against Candida albicans at 80 ug/disk
Bacillus subtilis = assay: Antibacterial activity against Bacillus subtilis at 80 ug/disk
Chlorella sorokiniana = assay: Antimicrobial activity against Chlorella sorokiniana at 80 ug/disk

Measured: Activity

CC1=C[C@H]2[C@@H](C(C)(C)O)CC[C@@](C)(O)[C@H]2CC1
inactive: all assays above

CC1=C[C@H]2[C@@H](C(C)C)CC[C@@](C)(O)[C@H]2CC1=O
inactive: all assays above

C[C@H]1C(=O)C[C@H]2[C@@H](C1O)[C@@H](C(C)(C)O)CC[C@@]2(C)O (stereo not given in full)
inactive: all assays above

CC(C)[C@H]1CC[C@@](C)(O)[C@H]2CC(=O)C(CO)=C[C@@H]12
inactive: all assays above
